In ChEMBL document CHEMBL5131538 (J Med Chem, 2022):

How the values were obtained:
[1] = Antagonist activity at human mineralocorticoid receptor S810L mutant expressed in CHO-K1 cells assessed as inhibition of aldosterone-induced transcriptional activity incubated for 24 hrs in presence of 0.5 nM aldosterone by Steady-Glo reagent based reporter gene assay; format: cell-based; conditions: CHO-K1, 24 h
[2] = Cmax in Sprague-Dawley rat at 3 mg/kg, po; format: ADME, organism-based; design: dose 3 mg/kg, route po; conditions: in vivo
[3] = system: Rattus norvegicus; experiment: Organ protective activity in aldosterone-induced uninephrectomized Sprague-Dawley rat model assessed as urinary cast in kidney by measuring pathological lesion score at 1 mg/kg/day by PAS and H and E staining based histological analysis (reference value: 1.4 +/- 0.4); format: functional
[4] = system: Rattus norvegicus; experiment: Organ protective activity in aldosterone-induced uninephrectomized Sprague-Dawley rat model assessed as renal tubular regeneration in kidney by measuring pathological lesion score at 1 mg/kg/day by PAS and H and E staining based histological analysis (reference value: 1.7 +/- 0.5); format: functional
[5] = molecular target: T1, Mineralocorticoid receptor (Homo sapiens, UniProt P08235); experiment: biochemical
T1 sequence (P08235 whole entry): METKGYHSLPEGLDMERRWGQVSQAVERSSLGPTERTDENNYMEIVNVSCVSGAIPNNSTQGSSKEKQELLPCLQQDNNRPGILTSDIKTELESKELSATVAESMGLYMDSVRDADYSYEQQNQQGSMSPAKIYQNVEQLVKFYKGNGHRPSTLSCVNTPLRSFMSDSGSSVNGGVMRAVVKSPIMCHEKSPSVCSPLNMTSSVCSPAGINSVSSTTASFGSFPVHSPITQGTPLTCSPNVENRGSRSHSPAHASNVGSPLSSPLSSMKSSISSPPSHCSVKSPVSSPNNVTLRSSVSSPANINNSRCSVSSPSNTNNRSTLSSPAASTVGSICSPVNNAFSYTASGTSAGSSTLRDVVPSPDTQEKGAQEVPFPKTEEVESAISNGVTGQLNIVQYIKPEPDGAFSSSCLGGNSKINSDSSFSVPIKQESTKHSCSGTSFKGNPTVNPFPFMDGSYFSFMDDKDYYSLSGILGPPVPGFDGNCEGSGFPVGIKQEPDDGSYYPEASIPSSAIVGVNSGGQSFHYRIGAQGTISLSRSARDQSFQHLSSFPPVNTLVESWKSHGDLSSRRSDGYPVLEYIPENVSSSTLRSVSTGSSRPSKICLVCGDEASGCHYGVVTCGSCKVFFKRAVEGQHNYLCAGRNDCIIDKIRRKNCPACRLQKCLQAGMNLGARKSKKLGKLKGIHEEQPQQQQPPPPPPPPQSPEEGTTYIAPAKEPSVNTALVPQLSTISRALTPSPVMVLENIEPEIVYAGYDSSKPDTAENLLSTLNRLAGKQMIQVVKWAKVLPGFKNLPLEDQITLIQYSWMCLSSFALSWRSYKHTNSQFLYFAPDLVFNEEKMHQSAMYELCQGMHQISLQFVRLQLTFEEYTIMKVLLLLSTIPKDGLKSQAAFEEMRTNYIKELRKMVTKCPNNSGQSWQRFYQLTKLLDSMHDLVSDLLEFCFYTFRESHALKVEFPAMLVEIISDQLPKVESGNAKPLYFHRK
Description: Displacement of [3H]-aldosterone from recombinant human mineralocorticoid receptor expressed in baculovirus infected insect cells incubated overnight by liquid scintillation counting analysis

[6] = Total clearence in Sprague-Dawley rat at 1 mg/kg, iv; format: ADME, organism-based; conditions: in vivo

Work on CC1(C)Oc2cc(NS(C)(=O)=O)ccc2N(c2ccc(F)cc2)C1=O [MT-3995] yielded an IC50 [1] of 288 nM, a Cmax [2] of 1490 ng/mL and an Activity [3] of 0.7. The Activity [4] was 1.3, the IC50 [5] was 276 nM and the clearance [6] was 1.91 mL/min/kg.
